Patent US7446091B2, “Methods and preparations for curing clinically ill patients” (Novo Nordisk A/S, priority 2000, dated 2008)

Test system: mechanically ventilated, adult patients admitted to the intensive care unit (ICU)
Test: Example 2: prospective, randomized, controlled study, mortality analysis
Format: in vivo, human
Text: All mechanically ventilated, adult patients admitted to the intensive care unit (ICU) were eligible for inclusion.
All mechanically ventilated, adult (age>18y) patients admitted to our 56-bed, mainly surgical, ICU from Feb. 2, 2000 onward were considered eligible for inclusion. […] Informed consent was obtained from the closest family member. The study protocol was approved by the Institutional Review Board of the Catholic University of Leuven School of Medicine.
Consecutive patients were randomly assigned to one of these two treatment groups using blinded envelopes, stratified according to type of critical illness diagnosed on admission [(a) neurological disease, cerebral trauma or surgery; (b) cardiac surgery; (c) thoracic surgery and/or respiratory insufficiency; (d) abdominal surgery/peritonitis; (e) vascular surgery; (f) multiple trauma or severe burns: (g) organ transplantation; (h) others, mainly extensive oncological procedures] and balanced with the use of permuted blocks of ten.
All patients were fed continuously, on admission with mainly intravenous glucose (200-300 g/24 h) and from the next day onward with a standardised feeding schedule aiming for a caloric content up to 20-30 non-protein Calories/kg/24 h and a balanced composition (0.13-0.26 g nitrogen/kg/24 h and 20%-40% of non-protein Calories as lipids) of either total parenteral, combined parenteral/enteral or full enteral feeding, the latter mode attempted as early as possible. Other comcomitant ICU therapy was left to the discretion of attending physicians.
In patients treated in ICU for more than one week, a weekly electromyography (EMG) was performed to screen for Critical Illness Polyneuropathy. EMGs were interpreted by the same electrophysiologist who was blinded for randomization. In case of ICU death, a post-mortem examination was performed to confirm the presumed cause of death.
The primary outcome measure was death from all causes during intensive care. Secondary outcome measures were in-hospital mortality, incidence of prolonged intensive care dependency and need for ICU re-admission, need for vital organ system support comprising mechanical ventilatory support, renal replacement therapy (continuous or intermittent hemofiltration or dialysis), inotropic or vasopressor support, incidence of critical illness polyneuropathy, the degree of inflammation, incidence of blood stream infections and use of antibiotics, transfusion requirements and incidence of hyperbilirubinemia. Furthermore, use of intensive care resources was analysed by cumulative TISS scores. In order to accurately and objectively assess duration of ICU stay, which is often influenced by non-patient related factors such as bed availability on regular wards, patients were defined ‘dischargable from ICU’ when they were no longer in need of vital organ system support and received at least ⅔rd of the caloric need through the normal enteral route or earlier when actually sent to a ward.
We hypothesized to detect a difference in mortality selectively in long-stay (>5 days) critically ill patients. Since prolonged ICU stay is not predictable at ICU admission, and since we aimed at treatment from admission onward, we chose to include all mechanically ventilated patients admitted to the ICU, without selection. We estimated that inclusion of 2500 admissions would be needed to rule out an absolute difference in mortality of ±5% in the long-stay cohort which would translate in an absolute risk reduction of ±2% for overall ICU mortality (2-sided alfa level of <0.05). […] All analyses were done on intention to treat basis.
Baseline and outcome variables were compared using Student's t-test, Chi-square test and Mann-Whitney-U test, as appropriate. Death odds ratios were calculated using multivariate logistic regression analysis.

insulin
Causes of death during intensive care - total no: cardiogenic shock (IIS): 10
Causes of death during intensive care - total no: multiple organ failure with proven septic focus (IIS): 8
Causes of death during intensive care - total no: multiple organ failure, no detectable septic focus (IIS): 14
Causes of death during intensive care - total no: severe brain damage (IIS): 3
ICU deaths among patients staying >5 days (%) (IIS): (10.6%)
ICU deaths among patients staying >5 days - total no. (IIS): 22
ICU deaths among patients staying ≤5 days (%) (IIS): (2.3%)
ICU deaths among patients staying ≤5 days - total no. (IIS): 13
ICU deaths, abdominal surgery/peritonitis (%) (IIS): (13.3%)
ICU deaths, abdominal surgery/peritonitis - total no (IIS): 6
ICU deaths, cardiac surgery (%) (IIS): (2%)
ICU deaths, cardiac surgery - total no. (IIS): 10
ICU deaths, multiple trauma or severe burns (%) (IIS): (12.1%)
ICU deaths, multiple trauma or severe burns - total no. (IIS): 4
ICU deaths, neurological disease, cerebral trauma or surgery (%) (IIS): (18.1%)
ICU deaths, neurological disease, cerebral trauma or surgery - total no. (IIS): 6
ICU deaths, other types of critical illness (%) (IIS): (8.7%)
ICU deaths, other types of critical illness - total no (IIS): 25
ICU deaths, others (%) (IIS): (0%)
ICU deaths, others - total no (IIS): 0
ICU deaths, thoracic surgery and/or respiratory insufficiency - total no. (IIS): 5
ICU deaths, transplantation (%) (IIS): (4.3%)
ICU deaths, transplantation - total no (IIS): 2
ICU deaths, vascular surgery (%) (IIS): (6.6%)
ICU deaths, vascular surgery - total no. (IIS): 2
In-hospital deaths among patients staying >5 days in ICU (%) (IIS): (16.8%)
In-hospital deaths among patients staying >5 days in ICU - total no. (IIS): 35
In-hospital deaths among patients staying ≤5 days in ICU (%) (IIS): (3.6%)
In-hospital deaths among patients staying ≤5 days in ICU - total no. (IIS): 20
Mortality in bacteremic patients (IIS): 12.5%
ICU deaths among patients staying >5 days, NNT (IIS vs RIS): 11
ICU deaths among patients staying >5 days, RRR (%) (IIS vs RIS): 47%
ICU deaths among patients staying ≤5 days, RRR (%) (IIS vs RIS): =
ICU deaths, NNT to save one life (IIS vs RIS): 29
ICU deaths, RRR (%) (IIS vs RIS): 43%
In-hospital deaths among patients staying >5 days in ICU, NNT (IIS vs RIS): 11
In-hospital deaths among patients staying >5 days in ICU, RRR (%) (IIS vs RIS): 36%
In-hospital deaths among patients staying ≤5 days in ICU, RRR (%) (IIS vs RIS): =
In-hospital deaths, NNT (IIS vs RIS): 27
In-hospital deaths, RRR (%) (IIS vs RIS): 34%
ICU mortality, absolute risk reduction in the prolonged critically ill cohort (IIS vs RIS, ICU stay >5 days): 9.6%
ICU deaths - total no. (IIS, N = 765): 35
In-hospital deaths - total no. (IIS, N = 765): 55
Causes of death during intensive care - total no: cardiogenic shock (RIS): 7
Causes of death during intensive care - total no: multiple organ failure with proven septic focus (RIS): 33
Causes of death during intensive care - total no: multiple organ failure, no detectable septic focus (RIS): 18
Causes of death during intensive care - total no: severe brain damage (RIS): 5
ICU deaths among patients staying >5 days (%) (RIS): (20.2%)
ICU deaths among patients staying >5 days - total no. (RIS): 49
ICU deaths among patients staying ≤5 days (%) (RIS): (2.6%)
ICU deaths among patients staying ≤5 days - total no. (RIS): 14
ICU deaths, abdominal surgery/peritonitis (%) (RIS): (15.5%)
ICU deaths, abdominal surgery/peritonitis - total no (RIS): 9
ICU deaths, cardiac surgery (%) (RIS): (5%)
ICU deaths, cardiac surgery - total no. (RIS): 25
ICU deaths, multiple trauma or severe burns (%) (RIS): (8.6%)
ICU deaths, multiple trauma or severe burns - total no. (RIS): 3
ICU deaths, neurological disease, cerebral trauma or surgery (%) (RIS): (23.3%)
ICU deaths, neurological disease, cerebral trauma or surgery - total no. (RIS): 7
ICU deaths, other types of critical illness (%) (RIS): (13.1%)
ICU deaths, other types of critical illness - total no (RIS): 38
ICU deaths, others (%) (RIS): (17.1%)
ICU deaths, others - total no (RIS): 6
ICU deaths, thoracic surgery and/or respiratory insufficiency (%) (RIS): (17.9%)
ICU deaths, thoracic surgery and/or respiratory insufficiency - total no. (RIS): 10
ICU deaths, transplantation (%) (RIS): (2.3%)
ICU deaths, transplantation - total no (RIS): 1
ICU deaths, vascular surgery (%) (RIS): (6.3%)
ICU deaths, vascular surgery - total no. (RIS): 2
In-hospital deaths among patients staying >5 days in ICU (%) (RIS): (26.3%)
In-hospital deaths among patients staying >5 days in ICU - total no. (RIS): 64
In-hospital deaths among patients staying ≤5 days in ICU (%) (RIS): (3.9%)
In-hospital deaths among patients staying ≤5 days in ICU - total no. (RIS): 21
Mortality in bacteremic patients (RIS): 29.5%
ICU deaths - total no. (RIS, N = 783): 63
In-hospital deaths - total no. (RIS, N = 783): 85
ICU mortality among the RIS patients actually receiving insulin (RIS, insulin-receiving patients): 12.4%
